Key:
Format in all cases: in vivo
[1] = system: diamondback moth (Plutella xylostella); test: Control test against diamondback moth (Plutella xylostella); details: 500 ppm active ingredient, sprayed on cabbage seedlings 20 mL/seedling, 2nd instar larvae, after 5 days, 25° C.
Method: Next, a Test Example is used to show efficacy of the Present compound against pests. In the following Test Example, the test was carried out at 25° C. Test Example 1 Control test against diamondback moth (Plutella xylostella) The Present compound was formulated according to the process described in the Formulation Example 6 to obtain a formulation, and water containing a spreader (0.03% by volume) was added thereto to prepare a diluted solution containing 500 ppm of the active ingredient. Cabbage (Brassicae oleracea) seedlings (on the developmental stage of the second to third true leaf) were planted in a container, and said diluted solution was sprayed into the leaves of the seedlings at a ratio of 20 mL/seedling. Thereafter, the stems and leaves of the seedlings were cut out, and the leaves were placed into a container lined with a filter paper. Approximately five the 2nd instar larvae of diamondback moth (Plutella xylostella) were released into the container. After 5 days, the number of the surviving insects was examined, and the controlling value was calculated by the following equation. […] Controlling value (%)={1−(Cb×Tai)/(Cai×Tb)}×100 wherein the symbols in the equation represent the following meanings. […]

[2] = system: Septoria leaf blotch (Septoria tritici) on wheat; test: Preventive efficacy by foliage application against Septoria leaf blotch on wheat
[3] = system: net blotch (Pyrenophora teres) on barley; test: Preventive efficacy by foliage application against net blotch on barley

Compound | Controlling value (control effects) [1] | preventive efficacy against Septoria leaf blotch (Septoria tritici) [2] | preventive efficacy against net blotch (Pyrenophora teres) [3]
Cc1cccc(-n2nnn(C)c2=O)c1CN1C(=O)CCN1c1ccc(Cl)cc1 [Present compound] | 100% | – | –
Cc1cccc(-n2nnn(C)c2=O)c1COC1=NN(c2ccc(Cl)cc2)CC1 [compound represented by formula (4)] | – | showed preventive efficacy | showed preventive efficacy

From patent US11064698B2, “Tetrazolinone compound and use thereof” (SUMITOMO CHEMICAL COMPANY, LIMITED, priority 2017, dated 2021)
